The source of these data is the supplement of paper PMC10307832.

Assay in all cases: relative viability (nuclei count vs DMSO), 5 days (fraction); higher = more cells survive
Compound in the assay “Olaparib + Palbociclib”: O=C(c1cc(Cc2n[nH]c(=O)c3ccccc23)ccc1F)N1CCN(C(=O)C2CC2)CC1 [Olaparib] + CC(=O)c1c(C)c2cnc(Nc3ccc(N4CCNCC4)cn3)nc2n(C2CCCC2)c1=O [Palbociclib] (partner 0.5 µM)
The method in brief: (§1)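 Nuclei were stained with Hoechst during a one-step fixation (final 0.05% Triton X-100, 1% formaldehyde, 1 ug/ml Hoechst) carried out 5 days after dosing, then counted on 4× images. The cells, lung cancer lines in 1536-well plates, had been dosed by pin tool the day after seeding with one drug alone or a fixed anchor-drug dose plus five library-drug doses (not always all listed) in √10 steps. Relative viability is the nuclei count in treated wells divided by that in vehicle wells, and each value is the median of duplicate plates.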

Compound in the assay “Carfilzomib + OSI-027”: CC(C)C[C@H](NC(=O)[C@H](CCc1ccccc1)NC(=O)CN1CCOCC1)C(=O)N[C@@H](Cc1ccccc1)C(=O)N[C@@H](CC(C)C)C(=O)[C@@]1(C)CO1 [Carfilzomib] + COc1cccc2cc(-c3nc([C@H]4CC[C@H](C(=O)O)CC4)n4ncnc(N)c34)[nH]c12 [OSI-027] (partner 0.5 µM)
The method in brief: as §1

Compound in the assay “Olaparib + Bortezomib”: O=C(c1cc(Cc2n[nH]c(=O)c3ccccc23)ccc1F)N1CCN(C(=O)C2CC2)CC1 [Olaparib] + CC(C)C[C@H](NC(=O)[C@H](Cc1ccccc1)NC(=O)c1cnccn1)B(O)O [Bortezomib] (partner 0.002 µM)
The method in brief: as §1

Compound in the assay “Olaparib + Tozasertib”: O=C(c1cc(Cc2n[nH]c(=O)c3ccccc23)ccc1F)N1CCN(C(=O)C2CC2)CC1 [Olaparib] + Cc1cc(Nc2cc(N3CCN(C)CC3)nc(Sc3ccc(NC(=O)C4CC4)cc3)n2)n[nH]1 [Tozasertib] (partner 0.1 µM)
The method in brief:
as §1

On to HCC-78, for which the relative viability with Olaparib + Palbociclib (first compound 0.08 µM) came out at 0.414; in the assay with Olaparib + Palbociclib (first compound 0.253 µM), 0.424; with Olaparib + Palbociclib (first compound 2.53 µM) it was 0.486; in the assay with Olaparib + Palbociclib (first compound 8 µM), 0.464; with Carfilzomib + OSI-027 (first compound 0.001 µM) it was 0.332; with Carfilzomib + OSI-027 (first compound 0.003162 µM) it was 0.318. Besides, the relative viability amounted to 0.387 with Carfilzomib + OSI-027 (first compound 0.01 µM); 0.359 in the assay with Carfilzomib + OSI-027 (first compound 0.03162 µM); 0.227 with Carfilzomib + OSI-027 (first compound 0.1 µM); 0.489 with Olaparib + Bortezomib (first compound 0.08 µM); 0.545 with Olaparib + Bortezomib (first compound 0.253 µM); 0.496 with Olaparib + Bortezomib (first compound 2.53 µM). Moreover, the relative viability in the assay with Olaparib + Bortezomib (first compound 8 µM) was 0.537; in the assay with Olaparib + Tozasertib (first compound 0.08 µM), 0.399; with Olaparib + Tozasertib (first compound 0.253 µM), 1.61; with Olaparib + Tozasertib (first compound 2.53 µM), 0.41; with Olaparib + Tozasertib (first compound 8 µM), 0.486.
In the case of NCI-H2405, the relative viability with Olaparib + Palbociclib (first compound 0.08 µM) came out at 0.577; in the assay with Olaparib + Palbociclib (first compound 0.253 µM) it was 0.497; with Olaparib + Palbociclib (first compound 2.53 µM), 0.491; with Olaparib + Palbociclib (first compound 8 µM), 0.496; with Carfilzomib + OSI-027 (first compound 0.003162 µM), 0.667; with Carfilzomib + OSI-027 (first compound 0.01 µM), 0.651. The relative viability with Carfilzomib + OSI-027 (first compound 0.03162 µM) came to 0.507; with Carfilzomib + OSI-027 (first compound 0.1 µM), 0.305; with Olaparib + Bortezomib (first compound 0.08 µM), 1.04; in the assay with Olaparib + Bortezomib (first compound 0.253 µM), 0.914; in the assay with Olaparib + Bortezomib (first compound 2.53 µM), 1.01; with Olaparib + Bortezomib (first compound 8 µM), 0.934. Moreover, the relative viability was 0.807 with Olaparib + Tozasertib (first compound 0.08 µM), 0.722 with Olaparib + Tozasertib (first compound 0.253 µM), 0.66 with Olaparib + Tozasertib (first compound 2.53 µM) and 0.654 with Olaparib + Tozasertib (first compound 8 µM).
For the cell line NCI-H727, the relative viability in the assay with Olaparib + Palbociclib (first compound 0.08 µM) stood at 0.655; with Olaparib + Palbociclib (first compound 0.253 µM) it was 0.601; with Olaparib + Palbociclib (first compound 2.53 µM), 0.618; with Olaparib + Palbociclib (first compound 8 µM), 0.561; with Carfilzomib + OSI-027 (first compound 0.001 µM) it was 0.618; with Carfilzomib + OSI-027 (first compound 0.003162 µM) it was 0.646. In addition, the relative viability with Carfilzomib + OSI-027 (first compound 0.01 µM) is 0.734; with Carfilzomib + OSI-027 (first compound 0.03162 µM), 0.463; in the assay with Carfilzomib + OSI-027 (first compound 0.1 µM), 0.242; with Olaparib + Bortezomib (first compound 0.08 µM) it was 0.844; in the assay with Olaparib + Bortezomib (first compound 0.253 µM), 0.829; with Olaparib + Bortezomib (first compound 2.53 µM), 0.709. The relative viability came out at 0.514 with Olaparib + Bortezomib (first compound 8 µM); 0.704 in the assay with Olaparib + Tozasertib (first compound 0.08 µM); 0.581 with Olaparib + Tozasertib (first compound 0.253 µM); 0.674 with Olaparib + Tozasertib (first compound 2.53 µM); 0.486 with Olaparib + Tozasertib (first compound 8 µM).
Turning to LC-2-ad, the relative viability with Olaparib + Palbociclib (first compound 0.08 µM) turned out to be 0.472; with Olaparib + Palbociclib (first compound 0.253 µM), 0.451; with Olaparib + Palbociclib (first compound 2.53 µM), 0.493; in the assay with Olaparib + Palbociclib (first compound 8 µM), 0.399; in the assay with Carfilzomib + OSI-027 (first compound 0.001 µM), 0.83; with Carfilzomib + OSI-027 (first compound 0.003162 µM) it was 1.02. Besides, the relative viability with Carfilzomib + OSI-027 (first compound 0.01 µM) amounted to 0.901; with Carfilzomib + OSI-027 (first compound 0.03162 µM), 0.633; in the assay with Carfilzomib + OSI-027 (first compound 0.1 µM), 0.207; with Olaparib + Bortezomib (first compound 0.08 µM) it was 1.15; in the assay with Olaparib + Bortezomib (first compound 0.253 µM) it was 0.922; in the assay with Olaparib + Bortezomib (first compound 2.53 µM), 0.908. Moreover, the relative viability is 0.556 in the assay with Olaparib + Bortezomib (first compound 8 µM); 0.554 with Olaparib + Tozasertib (first compound 0.08 µM); 0.429 in the assay with Olaparib + Tozasertib (first compound 0.253 µM); 0.436 with Olaparib + Tozasertib (first compound 2.53 µM); 0.437 with Olaparib + Tozasertib (first compound 8 µM).
